In PubChem BioAssay AID1963843 (Molecular Pharmacology Branch, DTP, NCI, 2024):
Values joined by “and” are separate entries in the source; they are usually repeats but may differ in a detail not shown here. Equal values may be shown once.

Test system: 616215-338-R-J1-PDC complex spheroid viability
Assay: Anticancer human tumor 616215-338-R-J1-PDC patient-derived colon adenocarcinoma cell line growth inhibition [POLQ]
Settings: for viability, T/C: stronger effect = lower value
Protocol: Multicellular complex tumor spheroid response to Polymerase (POL) inhibitors (novobiocin, ART-558, RP6685) in combination with a variety of drugs and investigational agents in selected tumor cell lines
The POL inhibitors (novobiocin, ART-558, and RP6685) were evaluated both individually and in combination with standard of care and investigational anticancer small molecules within a complex spheroid model of solid tumors. . Complex spheroids include a stromal component modeled by human endothelial cells (HUVEC) and fibroblasts modeled by human mesenchymal stem cells (MSCs). The concentration ranges selected for each drug and investigational agent were based upon clinically achievable concentrations if the clinical Cmax of the agent was known.
Compounds. The drugs and investigational agents: novobiocin (NSC847541), ART-558 (NSC835418), RP-6685 (NSC848927), peposertib (NSC802822), ceralasertib (NSC780249), elimusertib (NSC800525), camonsertib (NSC841442), AZD-1390 (NSC803789), olaparib (NSC753686), talazoparib (NSC767125), rucaparib (NSC756644), sotorasib (NSC818433), MRTX-1133 (NSC836407), SN-38 (NSC673596), topotecan (NSC609699), epotoside (NSC141540), doxorubicin (NSC123127), gemcitabine (NSC613327), 5-fluorouracil (NSC19893), paclitaxel (NSC125973), vemurafenib (NSC761431), MSA-2 (NSC828583), SN-011 (NSC837082), adavosertib (NSC754352), prexasertib (NSC758257), carboplatin (NSC241240) and oxaliplatin (NSC266046), were obtained from the National Cancer Institute (NCI) Developmental Therapeutics Program Chemical Repository (21). The FDA-approved anticancer drug set is available from the Developmental Therapeutics Program at https://dtp.cancer.gov/organization/dscb/obtaining/. […] The stock solutions were prepared in dimethyl sulfoxide (DMSO, Sigma-Aldrich, St. Louis, MO, cat. D2650), except for the platinum compounds which were prepared in saline (Quality Biological, Gaithersburg, MD, cat. 114-055-101), at 800-fold the tested concentration and stored at -70 degrees C prior to their use. All drugs and investigational agents were tested over a range starting from a high concentration at or near the clinical Cmax and decreasing in half-log increments. If the clinical Cmax for an agent had not been determined, the highest concentration tested was 10 microM, except for SN-38, which was tested at a high concentration of 1 microM.
Cell Culture. All cells were maintained in an incubator at 37 degrees C and 5% CO2 with 95% humidity. The PDC lines were cultured according to standard operating procedures established by the NCI PDMR (https://pdmr.cancer.gov). Table 3 of the manuscript, lists the cell lines along with the number of the three cell types plated to form the mct-spheroids and media for tumor cell growth. After thawing, all PDC lines, except 997537-175-T-J1-PDC and 415267-285-R-J2-PDC, were cultured in Matrigel-coated flasks prepared with a working solution of 1X Ham's F-12 nutrient mix, without supplementation (Thermo Fisher Scientific, cat. 11765054), 100 U/mL penicillin-streptomycin (Thermo Fisher Scientific, cat. 15140122), and 2.5% Matrigel (Corning Inc., Corning, NY, cat. 354248) for the first three passages. The two PDC lines 997537-175-T-J1-PDC and 415267-285-R-J2-PDC were cultured on uncoated flasks. The 857933-349-R-J2-PDC line was cultured in 6C/Colon 1B media containing advanced DMEM/F-12 (Thermo Fisher Scientific, cat. 12634028), 10 mM HEPES (Thermo Fisher Scientific, cat. 15630080), 1X GlutaMAX supplement (Thermo Fisher Scientific, cat. 35050061), 0.1 mg/mL primocin (InvivoGen, San Diego, CA, cat. ant-pm-2), 10% defined fetal bovine serum, heat inactivated (HyClone Laboratories Inc., Logan, UT, cat. SH30070.03HI), 50% L-WRN conditioned media (ATCC, cat. CRL-3276), 1.25 mM N-Acetyl-L-cysteine (Sigma-Aldrich, cat. A9165), 10 mM nicotinamide (Sigma-Aldrich, cat. N0636), 1X B-27 supplement (Thermo Fisher Scientific, cat. 17504044), 1X N-2 supplement (Thermo Fisher Scientific, cat. […]
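Also: spheroids exposed to compounds for one week before readout.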
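For viability, T/C in this document: percent viability relative to DMSO vehicle wells taken as 100%.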

Structure (SMILES): CC1COCCN1c1cc(-c2ccnn2C)c2ccnc(-c3ccn[nH]3)c2n1 (stereo not given) + COC1C(OC(N)=O)C(O)C(Oc2ccc3c(O)c(NC(=O)c4ccc(O)c(CC=C(C)C)c4)c(=O)oc3c2C)OC1(C)C
- IC50 (curve of first compound, second compound 0.0316 µM): 862 nM
- IC50 (curve of first compound, second compound 0.1 µM): 608 nM
- IC50 (curve of first compound, second compound 0.316 µM): 619 nM
- IC50 (curve of first compound, second compound 1 µM): 610 nM
- IC50 (curve of first compound, second compound 3.16 µM): 804 nM
- IC50 (curve of first compound, second compound 10 µM): 635 nM
- viability, T/C (second compound 0.0316 µM, first compound 0.0316 µM): 102%
- viability, T/C (second compound 0.0316 µM, first compound 0.1 µM): 90.4%
- viability, T/C (second compound 0.0316 µM, first compound 0.316 µM): 70.4%
- viability, T/C (second compound 0.0316 µM, first compound 1 µM): 48.4%
- viability, T/C (second compound 0.0316 µM, first compound 3.16 µM): 31.5%
- viability, T/C (second compound 0.0316 µM, first compound 10 µM): 33%
- viability, T/C (second compound 0.1 µM, first compound 0.0316 µM): 96.4%
- viability, T/C (second compound 0.1 µM, first compound 0.1 µM): 91.1%
- viability, T/C (second compound 0.1 µM, first compound 0.316 µM): 60.8%
- viability, T/C (second compound 0.1 µM, first compound 1 µM): 44%
- viability, T/C (second compound 0.1 µM, first compound 3.16 µM): 30.5%
- viability, T/C (second compound 0.1 µM, first compound 10 µM): 38.7%
- viability, T/C (second compound 0.316 µM, first compound 0.0316 µM): 99.6%
- viability, T/C (second compound 0.316 µM, first compound 0.1 µM): 86.1%
- viability, T/C (second compound 0.316 µM, first compound 0.316 µM): 59.3%
- viability, T/C (second compound 0.316 µM, first compound 1 µM): 46.1%
- viability, T/C (second compound 0.316 µM, first compound 3.16 µM): 29.7%
- viability, T/C (second compound 0.316 µM, first compound 10 µM): 40.2%
- viability, T/C (second compound 1 µM, first compound 0.0316 µM): 103%
- viability, T/C (second compound 1 µM, first compound 0.1 µM): 84.8%
- viability, T/C (second compound 1 µM, first compound 0.316 µM): 58.9%
- viability, T/C (second compound 1 µM, first compound 1 µM): 46.1%
- viability, T/C (second compound 1 µM, first compound 3.16 µM): 29%
- viability, T/C (second compound 1 µM, first compound 10 µM): 36.1%
- viability, T/C (second compound 3.16 µM, first compound 0.0316 µM): 96.1%
- viability, T/C (second compound 3.16 µM, first compound 0.1 µM): 86.4%
- viability, T/C (second compound 3.16 µM, first compound 0.316 µM): 68.6%
- viability, T/C (second compound 3.16 µM, first compound 1 µM): 47.6%
- viability, T/C (second compound 3.16 µM, first compound 3.16 µM): 28.7%
- viability, T/C (second compound 3.16 µM, first compound 10 µM): 30.9%
- viability, T/C (second compound 10 µM, first compound 0.0316 µM): 96.8%
- viability, T/C (second compound 10 µM, first compound 0.1 µM): 86.9%
- viability, T/C (second compound 10 µM, first compound 0.316 µM): 57.3%
- viability, T/C (second compound 10 µM, first compound 1 µM): 47.7%
- viability, T/C (second compound 10 µM, first compound 3.16 µM): 29.1%
- viability, T/C (second compound 10 µM, first compound 10 µM): 31%

Structure (SMILES): COc1cc(C2c3cc4c(cc3C(OC3OC5COC(C)OC5C(O)C3O)C3COC(=O)C23)OCO4)cc(OC)c1O (stereo not given)
- viability, T/C (compound 0.0316 µM): 96.8% and 101% and 99.5%
- viability, T/C (compound 0.1 µM): 107% and 95.5% and 104%
- viability, T/C (compound 0.316 µM): 86.7% and 58% and 91.3%
- viability, T/C (compound 1 µM): 88.7% and 52.2% and 78.8%
- viability, T/C (compound 3.16 µM): 76.6% and 46.9% and 73%
- viability, T/C (compound 10 µM): 46.8% and 28.6% and 54.6%
- IC50 (curve of compound): 9060 nM and 1040 nM and > 10000 nM

Structure (SMILES): CCc1c2c(nc3ccc(O)cc13)-c1cc3c(c(=O)n1C2)COC(=O)[C@]3(O)CC
- viability, T/C (compound 0.00316 µM): 96.8% and 81.2% and 106%
- viability, T/C (compound 0.01 µM): 92.7% and 44.1% and 89.9%
- viability, T/C (compound 0.0316 µM): 66.5% and 33.8% and 61.6%
- viability, T/C (compound 0.1 µM): 51.2% and 26.8% and 51.4%
- viability, T/C (compound 0.316 µM): 29.8% and 16.6% and 34.1%
- viability, T/C (compound 1 µM): 16.3% and 9.67% and 18%
